Assay in all cases: area under concentration-response curve (viability) (AUC (a.u.)); higher = less active
Holding throughout (conditions): 48 h

Assay [1] deals with CU-ACC1. Summed up:
(§1)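 Luminescence from CellTiter-Glo, read after 48 h, measured three adrenocortical carcinoma cell lines treated in 1,536-well plates with library compounds at 11 concentrations. Values were normalised per plate to vehicle and empty-well controls. The AC50 and area under the curve come from fitted concentration-response curves in inhibitory or non-responding classes only.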

The test system of assay [2] is CU-ACC2. In a few lines:
as §1

For assay [3], the system named is NCI-H295R. In a few lines: as §1

The values that follow come from the supplement of paper PMC10949913.

Several values for one entry are separate records, joined by “and”; a condition that tells them apart may be missing. Equal entries are not always repeated.

With `C[S+](=O)([O-])c1ccc(Oc2cc(F)cc(C#N)c2)c2c1[C@H](O)C(F)(F)C2`, the “area under concentration-response curve” value was determined as 571 in assay [1], 645 in assay [2] and 603 in assay [3].
As for `O=[N+]([O-])c1cncn1CCN1CCOCC1`, the “area under concentration-response curve” value in assay [1] was 545; in assay [2], 611; in assay [3], 563.
`C[S+](=O)([O-])c1ccc(C(=O)Nc2ccc(Cl)c(-c3ccccn3)c2)c(Cl)c1`: the “area under concentration-response curve” value in assay [1] is 544; in assay [2] it was 674; in assay [3] it was 591.
The matching figures for `CN(C)c1ccc(O)c2c1C[C@H]1C[C@H]3[C@H](N(C)C)C(O)=C(C(N)=O)C(=O)[C@@]3(O)C(O)=C1C2=O`: 453, 524 and 473.
Regarding `CCc1cc(Nc2nccc(-c3c(-c4ccc(OC)c(C(=O)Nc5c(F)cccc5F)c4)nc4ccccn34)n2)c(OC)cc1N1CCC(N2CCN([S+](C)(=O)[O-])CC2)CC1`, the “area under concentration-response curve” value was determined as 509 in assay [1], 548 in assay [2] and 485 in assay [3].
In the case of `CCOC(=O)[C@@H](N)CCC(=O)N[C@@H](CSCc1ccccc1)C(=O)N[C@@H](C(=O)OCC)c1ccccc1`, the figures for the “area under concentration-response curve” value in assay [1], in assay [2] and in assay [3] were 594, 635 and 602, respectively.
Taken in the same sequence, the figures for `COc1cc(CNC(=O)CCCC/C=C/C(C)C)ccc1O` were 542, 653 and 599.
The matching figures for `CN[C@@H]1[C@@H](O)[C@@H](O[C@@H]2[C@@H](O)[C@H](O[C@H]3O[C@H](CN)[C@@H](O)[C@H](O)[C@H]3O)[C@@H](N)C[C@H]2NC(=O)C(O)CN)OC[C@]1(C)O.O=S(=O)(O)O` (stereo partly specified): 526, 601 and 553.
For the molecule `COc1ccc(CC2c3cc(OC)c(OC)cc3CC[N+]2(C)CCC(=O)OCCCCCOC(=O)CC[N+]2(C)CCc3cc(OC)c(OC)cc3C2Cc2ccc(OC)c(OC)c2)cc1OC` (stereo unspecified), the “area under concentration-response curve” value in assay [1] came to 449; in assay [2] it was 494; in assay [3], 474.
On to `N#C/N=C(\NCCCCCCOc1ccc(Cl)cc1)Nc1ccncc1`, for which the “area under concentration-response curve” value in assay [1] was determined as 269; in assay [2], 367; in assay [3] it was 425.
Regarding `Cc1ccc(C(=O)Nc2ccc([S+](=O)([O-])O)c3cc([S+](=O)([O-])O)cc([S+](=O)([O-])O)c23)cc1NC(=O)c1cccc(NC(=O)Nc2cccc(C(=O)Nc3cc(C(=O)Nc4ccc([S+](=O)([O-])O)c5cc([S+](=O)([O-])O)cc([S+](=O)([O-])O)c45)ccc3C)c2)c1`, the “area under concentration-response curve” value in assay [1] turned out to be 420; in assay [2], 488; in assay [3], 488.
In the case of `CC(C)C[C@H](CN)CC(=O)O`, the entries for the “area under concentration-response curve” value in assay [1], in assay [2] and in assay [3] were 474, 595 and 545, respectively.
On to `CN1C(=O)N[C@@H](Cc2c[nH]c3c(Cl)cccc23)C1=O`, for which the “area under concentration-response curve” value came to 531 in assay [1], 512 in assay [2] and 535 in assay [3].
In the case of `ClC\1=C(/CN2CCCC2=N)NC(=O)NC1=O`, the “area under concentration-response curve” value in assay [1] was found to be 505; in assay [2] it was 547; in assay [3] it was 486.
Take `CC(C)(Oc1ccc(C2CC2(Cl)Cl)cc1)C(=O)O` (stereo unspecified): the “area under concentration-response curve” value is 502 in assay [1], 483 in assay [2] and 526 in assay [3].
As to `O=C(Nc1ccc2c(c1)CCN(Cc1ncn[nH]1)C2)c1ccccc1-c1ccc(C(F)(F)F)cc1`, the entries for the “area under concentration-response curve” value in assay [1], in assay [2] and in assay [3] were 374, 505 and 476, respectively.
For the molecule `NC(=O)C1CCCc2c1[nH]c1ccc(Cl)cc21` (stereo unspecified), the “area under concentration-response curve” value was 496 in assay [1], 597 in assay [2] and 545 in assay [3].
The matching figures for `CCOC(=O)[C@H](CCc1ccccc1)N[C@@H](C)C(=O)N1[C@H](C(=O)O)C[C@@H]2CCC[C@@H]21`: 545, 649 and 595.
`OC[C@H]1O[C@@H](S[C@@H]2O[C@H](CO)[C@H](O)[C@H](n3cc(-c4cccc(F)c4)nn3)[C@H]2O)[C@H](O)[C@@H](n2cc(-c3cccc(F)c3)nn2)[C@H]1O`: the “area under concentration-response curve” value in assay [1] was determined as 507; in assay [2], 590; in assay [3] it was 547.
`Nc1cc(COc2c(Cl)cc(C[C@H](N)C(=O)O)cc2Cl)c2oc(-c3ccccc3)nc2c1`: the “area under concentration-response curve” value in assay [1] was 488; in assay [2], 577; in assay [3], 588.
For `COC1=C(F)C(=CC=C1)C/2=C(C)/N(CC3=C(F)C=CC=C3C(F)(F)F)C(=O)N(C[C@H](NCCCC(O)=O)C4=CC=CC=C4)C2=O`, the “area under concentration-response curve” value in assay [1] was 508; in assay [2], 598 and 615; in assay [3] it was 556 and 555.
As for `[O-]C(=O)C/1=N/C(=O)NC(=O)N1`, the “area under concentration-response curve” value stood at 418 in assay [1], 608 in assay [2] and 551 in assay [3].
Take `NC(=O)c1cccc(N)c1`: the “area under concentration-response curve” value in assay [1] is 582; in assay [2] it was 656; in assay [3] it was 595.
Take `O=C(NCC1CCOCC1)c1cnc(Nc2ccc(Cl)cc2Cl)nc1C(F)(F)F`: the entries for the “area under concentration-response curve” value in assay [1], in assay [2] and in assay [3] were 399, 562 and 525, respectively.
`Cc1noc(C)c1-c1ccc(-c2cc(C(N)=O)c(NC(N)=O)s2)c(O[C@H]2CCNC2)c1`: the “area under concentration-response curve” value was 456 in assay [1], 471 in assay [2] and 447 in assay [3].
Consider `Nc1nc(OC(c2ccc(-c3cccc(F)c3)cc2)C(F)(F)F)cc(-c2ccc(C[C@@H](N)C(=O)O)cc2)n1` (stereo partly specified), for which the “area under concentration-response curve” value in assay [1] turned out to be 464; in assay [2], 488; in assay [3], 449.
Taken in the same sequence, the figures for `CCOC(=O)[C@H](CCc1ccccc1)N[C@H]1CCc2ccccc2N(CC(=O)O)C1=O` were 492, 592 and 520.
As for `OC[C@H]1O[C@@H](OC2=CC3=C(C=C2)C(=O)\C(=C/O3)C4=CC=C(O)C=C4)[C@H](O)[C@@H](O)[C@@H]1O`, the “area under concentration-response curve” value in assay [1] was 551; in assay [2], 591; in assay [3], 576.
Take `Oc1nc(-c2ccc(C(F)(F)F)cc2)nc2c1CSCC2`: the “area under concentration-response curve” value is 511 in assay [1], 509 in assay [2] and 483 in assay [3].
Regarding `CN1CCN(C)C(=O)C1C2=CC=C(N/C3=N/C(=C\N(C)C3=O)C4=C(C)C(=CC=C4)NC(=O)C5=CC6=C(CCCC6)S5)C=C2` (stereo unspecified), the results for the “area under concentration-response curve” value in assay [1], in assay [2] and in assay [3] were 528, 612 and 580, respectively.
Taken in the same sequence, the figures for `CC(C)N1C(=O)NC(=C/C1=O)\N[C@@H](C)C2=CC=CC=C2` were 471, 552 and 497.
As to `CCN[C@H]1C[C@H](C)[S+](=O)([O-])c2sc([S+](N)(=O)[O-])cc21`, the “area under concentration-response curve” value in assay [1] is 514; in assay [2], 612; in assay [3], 558.
`Cc1c(-c2ccc(-c3ccccc3F)cc2)nc2ccc(F)cc2c1C(=O)O`: the “area under concentration-response curve” value turned out to be 595 in assay [1], 620 in assay [2] and 521 in assay [3].
As for `Cc1ccc(-n2c(C)cc(-c3nnc4n3CCCCC4)c2C)cc1`, the figures for the “area under concentration-response curve” value in assay [1], in assay [2] and in assay [3] were 575, 647 and 595, respectively.
Regarding `CCN1C[C@]2(OC(=O)c3ccccc3NC(C)=O)CC[C@H](OC)[C@@]34[C@@H]2C[C@@H]([C@@H]13)[C@@]1(O)C[C@H](OC)[C@H]2C[C@@H]4[C@]1(O)[C@H]2OC`, the figures for the “area under concentration-response curve” value in assay [1], in assay [2] and in assay [3] were 416, 499 and 429, respectively.
For `CC(C)C[C@H](CC(=O)O)C(=O)N[C@@H](Cc1c[nH]c2ccccc12)C(=O)N[C@@H](C)c1ccccc1`, the “area under concentration-response curve” value in assay [1] came to 433; in assay [2] it was 622; in assay [3], 577.
For `CC1=CC=C(C=C1)\C2=N\C3=CC=C(Cl)C=C3OC2`, the figures for the “area under concentration-response curve” value in assay [1], in assay [2] and in assay [3] were 504, 613 and 546, respectively.
